In ChEMBL document CHEMBL1130895, “Syntheses of 2-[(3,5-dimethyl-4-methoxypyridyl)alkyl]-benzothiazolidine derivatives as a potential gastric H+/K(+)-ATPase inhibitor” (Bioorg Med Chem Lett, 1998):

Assays:
[1] = target: Potassium-transporting ATPase (Homo sapiens, UniProt P20648); test: Inhibition of H+/K+ ATPase activity in buffered solution (pH 7.4); assay type: protein-complex assay
[2] = target: Potassium-transporting ATPase (Homo sapiens) (UniProt P20648+P51164); test: Inhibition of H+/K+ ATPase activity in buffered solution (pH 7.4) at concentration […]; assay type: protein-complex assay

IC50 [1]	inhibition [2]	Structure (SMILES)
> 100 µM	20%	COc1c(C)cnc(CCC2(C)Nc3cc(Cl)ccc3S2)c1C (stereo not given)
> 100 µM	61.1%	COc1c(C)cnc(/C=C/C2(C)Nc3ccccc3S2)c1C (stereo not given)
24 µM	84.4%	COc1c(C)cnc(CCC2(C)Nc3cc(C(F)(F)F)ccc3S2)c1C (stereo not given)
–	0%	COc1c(C)cnc(CCC2(C)Nc3cc(C)ccc3S2)c1C (stereo not given)
–	24.6%	COc1c(C)cnc(CCC2Nc3ccccc3S2)c1C (stereo not given)
98 µM	96.4%	COc1c(C)cnc(CCC2(C)Nc3ccccc3S2)c1C (stereo not given)
–	17%	COc1c(C)cnc(CCC2(C)Sc3ccccc3N2C)c1C (stereo not given)
–	95%	COc1ccc2[nH]c([S+]([O-])Cc3ncc(C)c(OC)c3C)nc2c1 (stereo not given)
–	0%	COc1c(C)cnc(CCCC2(C)Nc3ccccc3S2)c1C (stereo not given)
–	0%	CC1(CCc2ccccn2)Nc2ccccc2S1 (stereo not given)
–	58.5%	COc1c(C)cnc(CC2Nc3ccccc3S2)c1C (stereo not given)
–	0%	COc1c(C)cnc(C2Nc3ccccc3S2)c1C (stereo not given)
–	19.8%	CCOC(=O)[C@@H]1CSC(CCc2ncc(C)c(OC)c2C)N1 (stereo not given in full)
33 µM	81%	COc1c(C)cnc(CCC2(C)Nc3cc(F)ccc3S2)c1C (stereo not given)
–	0%	COc1c(C)cnc(CCC2(C)Nc3ccc(Cl)cc3S2)c1C (stereo not given)
